Assay results from ChEMBL document CHEMBL6134926, “Targeting KRAS G12D Mutations: Advances in Small Molecule Inhibitors and PROTAC Technology” (ACS Med Chem Lett, 2025).

Experiments:
[1] = target: SOS1-KRAS (Homo sapiens, UniProt P01116, G12D); assay: (§1) Inhibition of GST-tagged KRAS G12D mutant (2 to 169 residues) (unknown origin)/SOS1 catalytic domain (564 to 1069 residues) (unknown origin) protein-protein interaction preincubated with compound for 90 mins followed by SOS1 and GTP-DY-647P1 addition and measured after 30 mins by fluorescence based nucleotide exchange assay; assay type: protein-complex assay
[2] = as §1, with “G12V” for “G12D”, “60” for “30”; design: species or system Homo sapiens
[3] = Inhibition of ERK phosphorylation in human GP2d cells harboring KRAS G12D mutant incubated for 3 hrs by ICW assay; assay type: cell-based

Row | Compound | IC50 [1] [nM] | IC50 [2] [nM] | IC50 [3] [nM]
1 | CN(C)C(=O)c1nn2c(c1Cl)CN(c1nc(OC[C@@]34CCCN3C[C@H](F)C4)nc(N3CC(c4csc(N)c4C#N)C3)c1C#N)CCC2 | < 10 | < 10 | 100
2 | CC1(c2csc(N)c2C#N)CN(c2nc(OC[C@@]34CCCN3C[C@H](F)C4)nc(N3C[C@H]4CC[C@@H](C3)N4)c2C#N)C1 | < 10 |  | 10
3 | C[C@H](c1cccnc1N)N(C)c1nc(OC[C@@]23CCCN2C[C@H](F)C3)nc(N2CC(C)(c3csc(N)c3C#N)C2)c1C#N | < 10 | < 10 | 10

The remaining lines, values ahead:

Row | IC50 [1] [nM] | IC50 [2] [nM] | IC50 [3] [nM] | Compound
4 | < 10 | < 10 | 10 | CN(C)C(=O)c1nn2c(c1Cl)CN(c1nc(OC[C@@]34CCCN3C[C@H](F)C4)nc(N3CCC(c4c(Cl)sc(N)c4C#N)C3)c1C#N)CCC2 (stereo partly specified)
5 | 10 |  | 1000 | CN(C)C(=O)c1nn2c(c1Cl)CN(c1cc(N3CC(C)(c4csc(N)c4C#N)C3)nc(OC[C@@]34CCCN3C[C@H](F)C4)n1)CCC2
6 | < 10 | < 10 | 1 | CN(C)C(=O)c1nn2c(c1Cl)CN(c1nc(OC[C@@]34CCCN3C[C@H](F)C4)nc(N3CC(c4c(Cl)sc(N)c4C#N)C3)c1C#N)CCC2
